Test results from ChEMBL document CHEMBL4014279, “Synthesis of novel pyrazolo[3,4-b]quinolinyl acetamide analogs, their evaluation for antimicrobial and anticancer activities, validation by molecular modeling and CoMFA analysis” (Eur J Med Chem, 2017).
pIC50: −log10 of the molar value. ≈ marks a conversion by molar mass, not a printed value.

Key:
Raoultella planticola [1] = assay: Antibacterial activity against Klebsiella planticola MTCC 530 after 24 hrs by well diffusion method; assay type: functional; conditions: MTCC 530, 24 h
A549 = assay: Cytotoxicity against human A549 cells after 24 hrs by MTT assay; assay type: functional, cell-based; conditions: A549, 24 h
Candida albicans [2] = assay: Antifungal activity against Candida albicans MTCC 1637 after 24 hrs by well diffusion method; assay type: functional; conditions: MTCC 1637, 24 h
HepG2 = assay: Cytotoxicity against human HepG2 cells after 24 hrs by MTT assay; assay type: functional, cell-based; conditions: HepG2, 24 h
Escherichia coli [3] = assay: Antibacterial activity against Escherichia coli MTCC 739 after 24 hrs by well diffusion method; assay type: functional; conditions: MTCC 739, 24 h
Candida albicans [4] = assay: Antifungal activity against Candida albicans MTCC 227 after 24 hrs by well diffusion method; assay type: functional; conditions: MTCC 227, 24 h
Candida albicans [5] = assay: Antifungal activity against Candida albicans MTCC 3958 after 24 hrs by well diffusion method; assay type: functional; conditions: MTCC 3958, 24 h
Candida parapsilosis = assay: Antifungal activity against Candida parapsilosis MTCC 1744 after 24 hrs by well diffusion method; assay type: functional; conditions: MTCC 1744, 24 h
Pichia kudriavzevii = assay: Antifungal activity against Candida krusei MTCC 3020 after 24 hrs by well diffusion method; assay type: functional; conditions: MTCC 3020, 24 h
HeLa = assay: Cytotoxicity against human HeLa cells after 24 hrs by MTT assay; assay type: functional, cell-based
Pichia sporocuriosa = assay: Antifungal activity against Issatchenkia hanoiensis MTCC 4755 after 24 hrs by well diffusion method; assay type: functional; conditions: MTCC 4755, 24 h
Candida albicans [6] = assay: Antifungal activity against Candida albicans MTCC 3018 after 24 hrs by well diffusion method; assay type: functional; conditions: MTCC 3018, 24 h
Candida albicans [7] = assay: Antifungal activity against Candida albicans MTCC 3017 after 24 hrs by well diffusion method; assay type: functional; conditions: MTCC 3017, 24 h
Nakaseomyces glabratus = assay: Antifungal activity against Candida glabrata MTCC 3019 after 24 hrs by well diffusion method; assay type: functional; conditions: MTCC 3019, 24 h
Candida albicans [8] = assay: Antifungal activity against Candida albicans MTCC 4748 after 24 hrs by well diffusion method; assay type: functional; conditions: MTCC 4748, 24 h
Micrococcus luteus [9] = assay: Antibacterial activity against Micrococcus luteus MTCC 2470 after 24 hrs by well diffusion method; assay type: functional; conditions: MTCC 2470, 24 h
Candida albicans [10] = assay: Antifungal activity against Candida albicans MTCC 7315 after 24 hrs by well diffusion method; assay type: functional; conditions: MTCC 7315, 24 h
Candida albicans [11] = assay: Antifungal activity against Candida albicans MTCC 854 after 24 hrs by well diffusion method; assay type: functional; conditions: MTCC 854, 24 h
Staphylococcus aureus [12] = assay: Antibacterial activity against Staphylococcus aureus MLS16 MTCC 2940 after 24 hrs by well diffusion method; assay type: functional; conditions: MLS16 MTCC 2940, 24 h
Candida albicans [13] = assay: Antifungal activity against Candida albicans MTCC 183 after 24 hrs by well diffusion method; assay type: functional; conditions: MTCC 183, 24 h
Staphylococcus aureus [14] = assay: Antibacterial activity against Staphylococcus aureus MTCC 96 after 24 hrs by well diffusion method; assay type: functional; conditions: MTCC 96, 24 h
Pseudomonas aeruginosa = assay: Antibacterial activity against Pseudomonas aeruginosa MTCC 2453 after 24 hrs by well diffusion method; assay type: functional; conditions: MTCC 2453, 24 h
[Candida] aaseri = Antifungal activity against Candida aaseri MTCC 1962 after 24 hrs by well diffusion method; assay type: functional; conditions: Yamadazyma aaseri, MTCC 1962, 24 h
COLO 205 = assay: Cytotoxicity against human COLO205 cells after 24 hrs by MTT assay; assay type: functional, cell-based; conditions: COLO 205, 24 h
Bacillus subtilis [15] = assay: Antibacterial activity against Bacillus subtilis MTCC 121 after 24 hrs by well diffusion method; assay type: functional; conditions: MTCC 121, 24 h
Bacillus subtilis [16] = assay: Antibiofilm activity against Bacillus subtilis MTCC 121 after 24 hrs by crystal violet staining based method; assay type: functional; conditions: MTCC 121, 24 h
Staphylococcus aureus [17] = assay: Induction of intracellular ROS accumulation in Staphylococcus aureus MLS16 MTCC 2940 sessile biofilm cells assessed as fluorescence intensity at 2 ug/ml after 24 hrs by DCFH-DA staining-based fluorescence assay (reference value: 62 +/- 9.8 a.u.); assay type: functional
Staphylococcus aureus [18] = assay: Induction of intracellular ROS accumulation in Staphylococcus aureus MLS16 MTCC 2940 sessile biofilm cells assessed as fluorescence intensity at 4 ug/ml after 24 hrs by DCFH-DA staining-based fluorescence assay (reference value: 62 +/- 9.8 a.u.); assay type: functional
Staphylococcus aureus [19] = assay: Induction of intracellular ROS accumulation in Staphylococcus aureus MLS16 MTCC 2940 sessile biofilm cells assessed as fluorescence intensity at 1 ug/ml after 24 hrs by DCFH-DA staining-based fluorescence assay (reference value: 62 +/- 9.8 a.u.); assay type: functional
Staphylococcus aureus [20] = assay: Induction of intracellular ROS accumulation in Staphylococcus aureus MLS16 MTCC 2940 sessile biofilm cells assessed as fluorescence intensity at 3 ug/ml after 24 hrs by DCFH-DA staining-based fluorescence assay (reference value: 62 +/- 9.8 a.u.); assay type: functional
Escherichia coli [21] = assay: Antibiofilm activity against Escherichia coli MTCC 739 after 24 hrs by crystal violet staining based method; assay type: functional; conditions: MTCC 739, 24 h
Candida albicans [22] = assay: Antibiofilm activity against Candida albicans MTCC 4748 after 24 hrs by crystal violet staining based method; assay type: functional; conditions: MTCC 4748, 24 h
Micrococcus luteus [23] = assay: Antibiofilm activity against Micrococcus luteus MTCC 2470 after 24 hrs by crystal violet staining based method; assay type: functional; conditions: MTCC 2470, 24 h
Raoultella planticola [24] = assay: Antibiofilm activity against Klebsiella planticola MTCC 530 after 24 hrs by crystal violet staining based method; assay type: functional; conditions: MTCC 530, 24 h
Staphylococcus aureus [25] = assay: Antibiofilm activity against Staphylococcus aureus MLS16 MTCC 2940 after 24 hrs by crystal violet staining based method; assay type: functional; conditions: MLS16 MTCC 2940, 24 h
Staphylococcus aureus [26] = assay: Antibiofilm activity against Staphylococcus aureus MTCC 96 after 24 hrs by crystal violet staining based method; assay type: functional; conditions: MTCC 96, 24 h

SMILES | MIC (Raoultella planticola [1]) [µg/mL] | pIC50 (A549) | MIC (Candida albicans [2]) [µg/mL] | pIC50 (HepG2) | MIC (Escherichia coli [3]) [µg/mL] | MIC (Candida albicans [4]) [µg/mL] | MIC (Candida albicans [5]) [µg/mL] | MIC (Candida parapsilosis) [µg/mL] | MIC (Pichia kudriavzevii) [µg/mL] | pIC50 (HeLa) | MIC (Pichia sporocuriosa) [µg/mL] | MIC (Candida albicans [6]) [µg/mL] | MIC (Candida albicans [7]) [µg/mL] | MIC (Nakaseomyces glabratus) [µg/mL] | MIC (Candida albicans [8]) [µg/mL] | MIC (Micrococcus luteus [9]) [µg/mL] | MIC (Staphylococcus aureus [12]) [µg/mL] | MIC (Staphylococcus aureus [14]) [µg/mL] | MIC (Pseudomonas aeruginosa) [µg/mL] | MIC (Bacillus subtilis [15]) [µg/mL] | also measured
COc1ccc(NC(=O)Cn2nc(C(F)(F)F)c3c(-c4ccccc4)c4ccccc4nc32)cc1 | 7.8 (≈ 16.4 µM) | 4.74 | 62.5 (≈ 131 µM) | 4.69 | 62.5 (≈ 131 µM) | 31.2 (≈ 65.5 µM) | 31.2 (≈ 65.5 µM) | 31.2 (≈ 65.5 µM) | 62.5 (≈ 131 µM) | 4.65 | 31.2 (≈ 65.5 µM) | 62.5 (≈ 131 µM) | 31.2 (≈ 65.5 µM) | 31.2 (≈ 65.5 µM) | 62.6 (≈ 131 µM) | 7.8 (≈ 16.4 µM) | 62.5 (≈ 131 µM) | 31.2 (≈ 65.5 µM) | > 125 | 62.5 (≈ 131 µM) | MIC (Candida albicans [10]): 31.2 µg/mL (≈ 65.5 µM); MIC (Candida albicans [11]): 31.2 µg/mL (≈ 65.5 µM); MIC (Candida albicans [13]): 62.5 µg/mL (≈ 131 µM); MIC ([Candida] aaseri): 62.5 µg/mL (≈ 131 µM); pIC50 (COLO 205): 4.71
O=C(O)c1cn(C2CC2)c2cc(N3CCNCC3)c(F)cc2c1=O [CIPROFLOXACIN] | 0.9 (≈ 2.72 µM) | – | – | – | 0.9 (≈ 2.72 µM) | – | – | – | – | – | – | – | – | – | – | 0.9 (≈ 2.72 µM) | 0.9 (≈ 2.72 µM) | 0.9 (≈ 2.72 µM) | 0.9 (≈ 2.72 µM) | 0.9 (≈ 2.72 µM) | pIC50 (Bacillus subtilis [16]): 6.22; Flu intensity (Staphylococcus aureus [17]): 925 a.u.; Flu intensity (Staphylococcus aureus [18]): 2010 a.u.; Flu intensity (Staphylococcus aureus [19]): 601 a.u.; Flu intensity (Staphylococcus aureus [20]): 1952 a.u.; pIC50 (Escherichia coli [21]): 6.10
O=C(Cn1nc(C(F)(F)F)c2c(-c3ccccc3)c3ccccc3nc21)NCCN1CCNCC1 | 3.9 (≈ 8.08 µM) | 4.97 | 7.8 (≈ 16.2 µM) | 4.95 | 7.8 (≈ 16.2 µM) | 15.6 (≈ 32.3 µM) | 15.6 (≈ 32.3 µM) | 7.8 (≈ 16.2 µM) | 15.6 (≈ 32.3 µM) | 4.87 | 7.8 (≈ 16.2 µM) | 15.6 (≈ 32.3 µM) | 7.8 (≈ 16.2 µM) | 15.6 (≈ 32.3 µM) | 7.8 (≈ 16.2 µM) | 3.9 (≈ 8.08 µM) | 3.9 (≈ 8.08 µM) | 7.8 (≈ 16.2 µM) | > 125 | 3.9 (≈ 8.08 µM) | pIC50 (Candida albicans [22]): 5.29; pIC50 (Micrococcus luteus [23]): 5.60; pIC50 (Bacillus subtilis [16]): 5.66; Flu intensity (Staphylococcus aureus [17]): 792 a.u.; pIC50 (Raoultella planticola [24]): 5.64; pIC50 (Staphylococcus aureus [25]): 5.68; MIC (Candida albicans [10]): 15.6 µg/mL (≈ 32.3 µM); Flu intensity (Staphylococcus aureus [18]): 1342 a.u.; MIC (Candida albicans [11]): 15.6 µg/mL (≈ 32.3 µM); Flu intensity (Staphylococcus aureus [19]): 492 a.u.; Flu intensity (Staphylococcus aureus [20]): 101 a.u.; pIC50 (Escherichia coli [21]): 5.38; MIC (Candida albicans [13]): 7.8 µg/mL (≈ 16.2 µM); pIC50 (Staphylococcus aureus [26]): 5.39; MIC ([Candida] aaseri): 15.6 µg/mL (≈ 32.3 µM); pIC50 (COLO 205): 4.91
